From the NIST ThermoML archive (doi:10.1016/j.fluid.2008.09.004)
Numbers after ± are expanded uncertainties.

Tests used:
[1] = xn = mol fraction of the nth substance listed; settings: 101 kPa, Liquid, Vibrating tube method
[2] = molar heat capacity at constant pressure; xn = mol fraction of the nth substance listed; settings: 101 kPa, Liquid, Small sample (50 mg) DSC

CCCCn1cc[n+](C)c1.COS(=O)(=O)[O-] [1-butyl-3-methylimidazolium methyl sulfate] + CCO
Settings | mass density, [1] [kg/m3] | molar heat capacity at constant pressure, [2] [J/K/mol]
293.15 K, x1 = 0.0511 | 860.9 ± 0.3 | 128.1 ± 2
293.15 K, x1 = 0.1025 | 916.2 ± 0.3 | 143.3 ± 2.2
293.15 K, x1 = 0.199 | – | 171.7 ± 2.7
293.15 K, x1 = 0.2016 | 995 ± 0.2 | –
293.15 K, x1 = 0.3106 | 1055 ± 0.2 | 204.1 ± 3.2
293.15 K, x1 = 0.4058 | 1093.4 ± 0.2 | 232.2 ± 3.6
293.15 K, x1 = 0.5057 | 1124.7 ± 0.2 | 262.1 ± 4.1
293.15 K, x1 = 0.6005 | 1147.9 ± 0.2 | 290.9 ± 4.5
293.15 K, x1 = 0.69 | 1166.6 ± 0.2 | 318.2 ± 4.9
293.15 K, x1 = 0.7834 | 1182.5 ± 0.2 | 346.9 ± 5.4
293.15 K, x1 = 0.8815 | 1196.6 ± 0.2 | 377.1 ± 5.8
293.15 K, x1 = 0.9368 | 1203.5 ± 0.2 | 394 ± 6.1
298.15 K, x1 = 0.0511 | 856.7 ± 0.3 | 130 ± 2
298.15 K, x1 = 0.1025 | 912.2 ± 0.3 | 145.1 ± 2.2
298.15 K, x1 = 0.199 | – | 173.4 ± 2.7
298.15 K, x1 = 0.2016 | 991.2 ± 0.2 | –
298.15 K, x1 = 0.3106 | 1051.3 ± 0.2 | 205.8 ± 3.2
298.15 K, x1 = 0.4058 | 1089.8 ± 0.2 | 234 ± 3.6
298.15 K, x1 = 0.5057 | 1121.2 ± 0.2 | 263.9 ± 4.1
298.15 K, x1 = 0.6005 | 1144.5 ± 0.2 | 292.8 ± 4.5
298.15 K, x1 = 0.69 | 1163.1 ± 0.2 | 320.3 ± 5
298.15 K, x1 = 0.7834 | 1179.1 ± 0.2 | 349.1 ± 5.4
298.15 K, x1 = 0.8815 | 1193.2 ± 0.2 | 379.5 ± 5.9
298.15 K, x1 = 0.9368 | 1200.2 ± 0.2 | 396.5 ± 6.1
303.15 K, x1 = 0.0511 | 852.6 ± 0.3 | 131.8 ± 2
303.15 K, x1 = 0.1025 | 908.2 ± 0.3 | 146.7 ± 2.3
303.15 K, x1 = 0.199 | – | 174.9 ± 2.7
303.15 K, x1 = 0.2016 | 987.4 ± 0.2 | –
303.15 K, x1 = 0.3106 | 1047.6 ± 0.2 | 207.2 ± 3.2
303.15 K, x1 = 0.4058 | 1086.3 ± 0.2 | 235.6 ± 3.7
303.15 K, x1 = 0.5057 | 1117.7 ± 0.2 | 265.6 ± 4.1
303.15 K, x1 = 0.6005 | 1141 ± 0.2 | 294.7 ± 4.6
303.15 K, x1 = 0.69 | 1159.7 ± 0.2 | 322.3 ± 5
303.15 K, x1 = 0.7834 | 1175.7 ± 0.2 | 351.2 ± 5.4
303.15 K, x1 = 0.8815 | 1189.9 ± 0.2 | 381.7 ± 5.9
303.15 K, x1 = 0.9368 | 1196.9 ± 0.2 | 398.9 ± 6.2
308.15 K, x1 = 0.0511 | 848.5 ± 0.3 | 133.5 ± 2.1
308.15 K, x1 = 0.1025 | 904.3 ± 0.3 | 148.3 ± 2.3
308.15 K, x1 = 0.199 | – | 176.4 ± 2.7
308.15 K, x1 = 0.2016 | 983.6 ± 0.2 | –
308.15 K, x1 = 0.3106 | 1043.9 ± 0.2 | 208.6 ± 3.2
308.15 K, x1 = 0.4058 | 1082.7 ± 0.2 | 237.1 ± 3.7
308.15 K, x1 = 0.5057 | 1114.2 ± 0.2 | 267.3 ± 4.1
308.15 K, x1 = 0.6005 | 1137.6 ± 0.2 | 296.5 ± 4.6
308.15 K, x1 = 0.69 | 1156.3 ± 0.2 | 324.2 ± 5
308.15 K, x1 = 0.7834 | 1172.3 ± 0.2 | 353.3 ± 5.5
308.15 K, x1 = 0.8815 | 1186.6 ± 0.2 | 383.9 ± 5.9
308.15 K, x1 = 0.9368 | 1193.6 ± 0.2 | 401.2 ± 6.2
313.15 K, x1 = 0.0511 | 844.4 ± 0.3 | 135 ± 2.1
313.15 K, x1 = 0.1025 | 900.2 ± 0.3 | 149.7 ± 2.3
313.15 K, x1 = 0.199 | – | 177.6 ± 2.8
313.15 K, x1 = 0.2016 | 979.8 ± 0.3 | –
313.15 K, x1 = 0.3106 | 1040.3 ± 0.2 | 209.9 ± 3.3
313.15 K, x1 = 0.4058 | 1079.1 ± 0.2 | 238.5 ± 3.7
313.15 K, x1 = 0.5057 | 1110.7 ± 0.2 | 268.9 ± 4.2
313.15 K, x1 = 0.6005 | 1134.1 ± 0.2 | 298.2 ± 4.6
313.15 K, x1 = 0.69 | 1152.9 ± 0.2 | 326.1 ± 5.1
313.15 K, x1 = 0.7834 | 1169 ± 0.2 | 355.3 ± 5.5
313.15 K, x1 = 0.8815 | 1183.3 ± 0.2 | 386 ± 6
313.15 K, x1 = 0.9368 | 1190.3 ± 0.2 | 403.3 ± 6.2
318.15 K, x1 = 0.0511 | 840.1 ± 0.3 | 136.6 ± 2.1
318.15 K, x1 = 0.1025 | 896.1 ± 0.3 | 151 ± 2.3
318.15 K, x1 = 0.199 | – | 178.8 ± 2.8
318.15 K, x1 = 0.2016 | 975.9 ± 0.3 | –
318.15 K, x1 = 0.3106 | 1036.6 ± 0.2 | 211.2 ± 3.3
318.15 K, x1 = 0.4058 | 1075.5 ± 0.2 | 239.8 ± 3.7
318.15 K, x1 = 0.5057 | 1107.2 ± 0.2 | 270.5 ± 4.2
318.15 K, x1 = 0.6005 | 1130.7 ± 0.2 | 299.9 ± 4.6
318.15 K, x1 = 0.69 | 1149.5 ± 0.2 | 327.9 ± 5.1
318.15 K, x1 = 0.7834 | 1165.6 ± 0.2 | 357.3 ± 5.5
318.15 K, x1 = 0.8815 | 1180 ± 0.2 | 388 ± 6
318.15 K, x1 = 0.9368 | 1187 ± 0.2 | 405.4 ± 6.3
